Each structure is given as a SMILES string.

Usually IC50 stands for the concentration needed to halve the response being measured. Low readings indicate higher potency, high ones lower potency.

The target in the experiment is T1, human ROCKα/ROCKII mix (Homo sapiens, UniProt O75116).
T1 construct: purchased Upstate Biotechnology 14-451
T1 sequence (O75116 whole entry): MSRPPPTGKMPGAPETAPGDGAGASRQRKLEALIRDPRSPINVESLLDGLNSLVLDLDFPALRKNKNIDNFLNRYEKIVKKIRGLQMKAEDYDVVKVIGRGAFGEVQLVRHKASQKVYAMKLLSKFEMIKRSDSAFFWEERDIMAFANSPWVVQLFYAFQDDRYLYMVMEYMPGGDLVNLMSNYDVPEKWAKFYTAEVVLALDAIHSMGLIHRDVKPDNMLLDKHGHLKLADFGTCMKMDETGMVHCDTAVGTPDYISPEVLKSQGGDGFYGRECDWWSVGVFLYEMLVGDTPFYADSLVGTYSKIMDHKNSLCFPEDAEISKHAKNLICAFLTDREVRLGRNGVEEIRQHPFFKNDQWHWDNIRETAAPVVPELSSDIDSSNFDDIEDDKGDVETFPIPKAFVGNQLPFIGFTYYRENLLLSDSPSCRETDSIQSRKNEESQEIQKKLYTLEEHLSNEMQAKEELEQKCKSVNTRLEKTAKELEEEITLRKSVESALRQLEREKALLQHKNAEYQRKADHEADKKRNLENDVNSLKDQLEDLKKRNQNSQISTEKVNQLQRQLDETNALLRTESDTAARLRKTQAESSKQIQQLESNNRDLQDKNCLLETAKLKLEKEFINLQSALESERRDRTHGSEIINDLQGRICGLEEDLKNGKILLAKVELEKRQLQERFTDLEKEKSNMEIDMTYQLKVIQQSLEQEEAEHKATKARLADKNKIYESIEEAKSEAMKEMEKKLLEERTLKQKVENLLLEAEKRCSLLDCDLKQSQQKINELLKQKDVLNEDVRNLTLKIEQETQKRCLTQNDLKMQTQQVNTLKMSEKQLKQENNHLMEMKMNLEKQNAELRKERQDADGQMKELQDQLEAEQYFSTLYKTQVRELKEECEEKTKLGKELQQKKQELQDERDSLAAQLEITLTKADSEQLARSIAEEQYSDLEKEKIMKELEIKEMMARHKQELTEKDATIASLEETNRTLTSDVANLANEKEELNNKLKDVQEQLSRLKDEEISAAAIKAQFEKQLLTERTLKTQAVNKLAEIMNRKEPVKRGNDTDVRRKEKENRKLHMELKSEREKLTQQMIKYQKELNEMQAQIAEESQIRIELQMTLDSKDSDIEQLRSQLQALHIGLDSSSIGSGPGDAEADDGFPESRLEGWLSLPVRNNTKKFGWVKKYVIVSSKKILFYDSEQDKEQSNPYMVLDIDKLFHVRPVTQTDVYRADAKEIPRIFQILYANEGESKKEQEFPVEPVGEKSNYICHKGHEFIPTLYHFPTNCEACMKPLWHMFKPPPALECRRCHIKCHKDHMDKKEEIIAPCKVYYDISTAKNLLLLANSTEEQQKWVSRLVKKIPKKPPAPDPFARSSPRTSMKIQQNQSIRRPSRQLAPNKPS
The experiment can be described thus: ROCK inhibition, fluorescence polarization (FP) assay with ROCK IMAP Kit. The conditions noted are these: Table 3, compounds of Formula III20. The format is biochemical. For orientation: Polarisation of emitted light reports the rotation of a fluorescent probe.
Take `NC(CC(=O)N1CCc2ccc(F)cc2C1)c1ccc(C(=O)Nc2ccncc2)cc1` (stereo not drawn) [Compound 104, 4-[1-amino-3-(7-fluoro-3,4-dihydro-1H-isoquinolin-2-yl)-3-oxo-propyl]-N-pyridin-4-yl-benzamide]: the IC50 was < 0.5 µM. With `NC(CC(=O)N1Cc2ccccc2C1)c1ccc(C(=O)Nc2ccncc2)cc1` (stereo not drawn) [Compound 105, 4-[1-amino-3-(1,3-dihydro-isoindol-2-yl)-3-oxo-propyl]-N-pyridin-4-yl-benzamide], the IC50 is < 0.5 µM.

Consider `NC(CC(=O)N1CCSC1)c1ccc(C(=O)Nc2ccncc2)cc1` (stereo not drawn) [Compound 106, 4-(1-amino-3-oxo-3-thiazolidin-3-yl-propyl)-N-pyridin-4-yl-benzamide], for which the IC50 is < 0.5 µM.

On to `NC(CC(=O)N1CCCCC1)c1ccc(C(=O)Nc2ccncc2)cc1` (stereo not drawn) [Compound 107, 4-(1-amino-3-oxo-3-piperidin-1-yl-propyl)-N-pyridin-4-yl-benzamide], for which the IC50 was < 0.5 µM.

For `CC1CC(C)CN(C(=O)CC(N)c2ccc(C(=O)Nc3ccncc3)cc2)C1` (stereo not drawn) [Compound 108, 4-[1-amino-3-(3,5-dimethyl-piperidin-1-yl)-3-oxo-propyl]-N-pyridin-4-yl-benzamide], the IC50 was < 0.5 µM. For the molecule `NC(CC(=O)N1CCCC(CO)C1)c1ccc(C(=O)Nc2ccncc2)cc1` (stereo not drawn) [Compound 109, 4-[1-amino-3-(3-hydroxymethyl-piperidin-1-yl)-3-oxo-propyl]-N-pyridin-4-yl-benzamide], the IC50 was < 0.5 µM. The value for `NC(CC(=O)N1CCCC2CCCCC21)c1ccc(C(=O)Nc2ccncc2)cc1` (stereo not drawn) [Compound 110, 4-[1-amino-3-(octahydro-quinolin-1-yl)-3-oxo-propyl]-N-pyridin-4-yl-benzamide] was < 0.5 µM; that for `NC(CC(=O)N1CCC(O)(c2ccccc2)CC1)c1ccc(C(=O)Nc2ccncc2)cc1` (stereo not drawn) [Compound 111, 4-[1-amino-3-(4-hydroxy-4-phenyl-piperidin-1-yl)-3-oxo-propyl]-N-pyridin-4-yl-benzamide] was < 0.5 µM; that for `NC(CC(=O)N1CCOCC1)c1ccc(C(=O)Nc2ccncc2)cc1` (stereo not drawn) [Compound 112, 4-(1-amino-3-morpholin-4-yl-3-oxo-propyl)-N-pyridin-4-yl-benzamide] was < 0.5 µM. For the molecule `CC1CN(C(=O)CC(N)c2ccc(C(=O)Nc3ccncc3)cc2)CC(C)O1` (stereo not drawn) [Compound 113, 4-[1-amino-3-(2,6-dimethyl-morpholin-4-yl)-3-oxo-propyl]-N-pyridin-4-yl-benzamide], the IC50 was < 0.5 µM.

`CC(C)N1CCN(C(=O)CC(N)c2ccc(C(=O)Nc3ccncc3)cc2)CC1` (stereo not drawn) [Compound 114, 4-[1-amino-3-(4-isopropyl-piperazin-1-yl)-3-oxo-propyl]-N-pyridin-4-yl-benzamide]: the IC50 is < 0.5 µM. In the case of `NC(CC(=O)N1CCN(CCO)CC1)c1ccc(C(=O)Nc2ccncc2)cc1` (stereo not drawn) [Compound 115, 4-{1-amino-3-[4-(2-hydroxy-ethyl)-piperazin-1-yl]-3-oxo-propyl}-N-pyridin-4-yl-benzamide], the IC50 is < 0.5 µM. Turning to `NC(CC(=O)N1CCN(c2ccccc2)CC1)c1ccc(C(=O)Nc2ccncc2)cc1` (stereo not drawn) [Compound 116, 4-[1-amino-3-oxo-3-(4-phenyl-piperazin-1-yl)-propyl]-N-pyridin-4-yl-benzamide], the IC50 is < 0.5 µM. Regarding `NC(CC(=O)N1CCC(c2ccccc2)CC1)c1ccc(C(=O)Nc2ccncc2)cc1` (stereo not drawn) [Compound 117, 4-[1-amino-3-(4-phenyl-piperidin-1-yl)-3-oxo-propyl]-N-pyridin-4-yl-benzamide], the half-maximal inhibitory concentration (IC50) is < 0.5 µM. On to `NC(CC(=O)N1CC=C(c2ccc(F)cc2)CC1)c1ccc(C(=O)Nc2ccncc2)cc1` (stereo not drawn) [Compound 118, 4-{1-amino-3[4-(4-fluoro-phenyl)-3,6-dihydro-2H-pyridin-1-yl]-3-oxo-propyl}-N-pyridin-4-yl-benzamide], for which the IC50 was < 0.5 µM. Consider `NC(CC(=O)N1CCC(Cc2ccccc2)CC1)c1ccc(C(=O)Nc2ccncc2)cc1` (stereo not drawn) [Compound 119, 4-[1-amino-3-(4-benzyl-piperidin-1-yl)-3-oxo-propyl]-N-pyridin-4-yl-benzamide], for which the IC50 was < 0.5 µM. As for `NC(CC(=O)N1CCC(c2nc3ccccc3o2)CC1)c1ccc(C(=O)Nc2ccncc2)cc1` (stereo not drawn) [Compound 120, 4-[1-amino-3-(4-benzooxazol-2-yl-piperidin-1-yl)-3-oxo-propyl]-N-pyridin-4-yl-benzamide], the IC50 is < 0.5 µM.

Molecule `COc1ccc(CN2CCN(C(=O)CC(N)c3ccc(C(=O)Nc4ccncc4)cc3)CC2)cc1` (stereo not drawn) [Compound 121, 4-{1-Amino-3-[4-(4-methoxy-benzyl)-piperazin-1-yl]-3-oxo-propyl}-N-pyridin-4-yl-benzamide] displayed an IC50 of 0.5 to 5 µM. As to `NC(CC(=O)N1CCN(Cc2ccccc2F)CC1)c1ccc(C(=O)Nc2ccncc2)cc1` (stereo not drawn) [Compound 122, 4-{1-amino-3-[4-(2-fluoro-benzyl)-piperazin-1-yl]-3-oxo-propyl}-N-pyridin-4-yl-benzamide], the IC50 is < 0.5 µM. For the molecule `NC(CC(=O)N1CCN(Cc2ccc(F)cc2)CC1)c1ccc(C(=O)Nc2ccncc2)cc1` (stereo not drawn) [Compound 123, 4-{1-amino-3-[4-(4-fluoro-benzyl)-piperazin-1-yl]-3-oxo-propyl}-N-pyridin-4-yl-benzamide], the half-inhibitory concentration (IC50) was < 0.5 µM. `NC(CC(=O)N1CCN(C(=O)c2ccco2)CC1)c1ccc(C(=O)Nc2ccncc2)cc1` (stereo not drawn) [Compound 124, 4-{1-amino-3-[4-(furan-2-carbonyl)-piperazin-1-yl]-3-oxo-propyl}-N-pyridin-4-yl-benzamide]: the IC50 is < 0.5 µM.

For `NC(CC(=O)N1CCC(c2c[nH]c3ccccc23)CC1)c1ccc(C(=O)Nc2ccncc2)cc1` (stereo not drawn) [Compound 125, 4-{1-amino-3-[4-(1H-indol-3-yl)-piperidin-1-yl]-3-oxo-propyl}-N-pyridin-4-yl-benzamide], the IC50 is < 0.5 µM. For `COC(=O)c1ccc2c(c1)CCN(C(=O)CC(N)c1ccc(C(=O)Nc3ccncc3)cc1)C2` (stereo not drawn) [Compound 126, 2-{3-amino-3-[4-(pyridin-4-ylcarbamoyl)-phenyl]-propionyl}-1,2,3,4-tetrahydro-isoquinoline-6-carboxylic acid methyl ester], the IC50 was in the range of 0.5 to 5 µM. As for `COC(=O)c1ccc(C2CCCCN2C(=O)CC(N)c2ccc(C(=O)Nc3ccncc3)cc2)cc1` (stereo not drawn) [Compound 127, 4(1-{3-amino-3-[4-(pyridin-4-ylcarbamoyl)-phenyl]-propionyl}-piperidin-2-yl)-benzoic acid methyl ester], the half-maximal inhibitory concentration (IC50) was < 0.5 µM. On to `NC(CC(=O)N1CCc2c([nH]c3ccccc23)C1)c1ccc(C(=O)Nc2ccncc2)cc1` (stereo not drawn) [Compound 128, 4-[1-amino-3-oxo-(1,3,4,9-tetrahydro-β-carbolin-2-yl)-propyl]-N-pyridin-4-yl-benzamide], for which the IC50 is < 0.5 µM. Molecule `NC(CC(=O)N1CCc2c([nH]c3ccccc23)C1c1cccc(Cl)c1)c1ccc(C(=O)Nc2ccncc2)cc1` (stereo not drawn) [Compound 129, 4-{1-amino-3-[1-(3-chloro-phenyl)-1,3,4,9-tetrahydro-β-carbolin-2-yl]-3-oxo-propyl}-N-pyridin-4-yl-benzamide] displayed an IC50 of 0.5 to 5 µM.

With `COc1ccc(C2c3[nH]c4ccccc4c3CCN2C(=O)CC(N)c2ccc(C(=O)Nc3ccncc3)cc2)cc1Br` (stereo not drawn) [Compound 130, 4-{1-amino-3-[1-(3-bromo-4-methoxy-phenyl)-1,3,4,9-tetrahydro-β-carbolin-2-yl]-3-oxo-propyl}-N-pyridin-4-yl-benzamide], the IC50 is 0.5 to 5 µM.

(Values after patent US20100190788A1, “Amide derivatives as kinase inhitors” (priority 2005, published 2010).)
